Structures can show the parent of a compound that is named as a salt.
Molecular target: recombinant Human Phosphodiesterase B2 (PDE4B2) (Homo sapiens, UniProt Q07343)
Assay: Human Phosphodiesterase B2 Radiometric Assay
Type: biochemical
Conditions: 0.1 μg/mL recombinant PDE4B2; preincubated at 30 C for 30 min; [3H]cyclic AMP 8 nM, stopped after 20 min; yttrium silicate SPA beads; read-out: PDE4B2 pIC50 (converted)
How it was run: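 SPA read-out: product 5′AMP binds yttrium silicate beads (added with 18 mM ZnSO4 after 20 min) in preference to [3H]cAMP substrate, given at 8 nM final.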

Chain of recombinant Human Phosphodiesterase B2 (PDE4B2) (Q07343 1-564 isoform Q07343-2): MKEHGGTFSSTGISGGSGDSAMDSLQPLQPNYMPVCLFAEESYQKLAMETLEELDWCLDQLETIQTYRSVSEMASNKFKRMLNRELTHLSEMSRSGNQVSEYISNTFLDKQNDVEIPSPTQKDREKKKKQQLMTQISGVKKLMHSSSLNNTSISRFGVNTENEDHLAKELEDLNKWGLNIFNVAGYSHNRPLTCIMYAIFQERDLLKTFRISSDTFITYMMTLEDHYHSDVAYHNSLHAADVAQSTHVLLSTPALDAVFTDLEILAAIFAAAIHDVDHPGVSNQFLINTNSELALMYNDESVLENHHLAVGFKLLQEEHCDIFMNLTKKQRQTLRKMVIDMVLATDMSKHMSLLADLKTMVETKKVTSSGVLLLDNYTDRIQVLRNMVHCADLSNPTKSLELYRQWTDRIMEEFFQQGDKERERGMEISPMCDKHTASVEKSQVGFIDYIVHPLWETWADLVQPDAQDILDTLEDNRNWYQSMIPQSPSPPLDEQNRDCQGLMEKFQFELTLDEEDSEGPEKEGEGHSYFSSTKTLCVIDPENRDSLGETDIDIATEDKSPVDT

IC50 [pM] | Structure (SMILES)
200 | Cc1ccc(O)c(C(=O)N[C@H]2CC[C@@H](NC(=O)c3cc(F)cnc3Oc3cccc(-c4ccc(O)c(CN5C[C@@H](C)N[C@@H](C)C5)c4)c3)CC2)c1 [Example 95, 2-(3′-(((3S,5R)-3,5-dimethylpiperazin-1-yl)methyl)-4′-hydroxybiphenyl-3-yloxy)-5-fluoro-N-((1s,4s)-4-(2-hydroxy-5-methylbenzamido)cyclohexyl)nicotinamide]
200 | Cc1cccc2nc(C(=O)N[C@H]3CC[C@@H](NC(=O)c4cc(F)cnc4Oc4cccc(-c5ccc(CN6C[C@@H](C)N[C@@H](C)C6)c(O)c5)c4)CC3)cn12 [Example 96, N-((1s,4s)-4-(2-(4′-(((3S,5R)-3,5-dimethylpiperazin-1-yl)methyl)-3′-hydroxybiphenyl-3-yloxy)-5-fluoronicotinamido)cyclohexyl)-5-methylimidazo[1,2-a]pyridine-2-carboxamide]
126 | C[C@@H]1CN(Cc2ccc(-c3cccc(Oc4ncc(F)cc4C(=O)N[C@H]4CC[C@@H](NC(=O)c5cc6ccccn6n5)CC4)c3)cc2O)C[C@H](C)N1 [Example 97, N-((1s,4s)-4-(2-(4′-(((3S,5R)-3,5-dimethylpiperazin-1-yl)methyl)-3′-hydroxybiphenyl-3-yloxy)-5-fluoronicotinamido)cyclohexyl)pyrazolo[1,5-a]pyridine-2-carboxamide]
100 | Cc1nc(C(=O)N[C@H]2CC[C@@H](NC(=O)c3cc(F)cnc3Oc3cccc(-c4ccc(CN5C[C@@H](C)N[C@@H](C)C5)c(O)c4)c3)CC2)cs1 [Example 98, N-((1s,4s)-4-(2-(4′-(((3S,5R)-3,5-dimethylpiperazin-1-yl)methyl)-3′-hydroxybiphenyl-3-yloxy)-5-fluoronicotinamido)cyclohexyl)-2-methylthiazole-4-carboxamide]
79.4 | C[C@@H]1CN(CCc2ccc(-c3cccc(Oc4ncc(F)cc4C(=O)N[C@H]4CC[C@@H](NC(=O)c5cnc6ccccc6n5)CC4)c3)cc2)C[C@H](C)N1 [Example 99, N-((1s,4s)-4-(2-(4′-(2-((3S,5R)-3,5-dimethylpiperazin-1-yl)ethyl)biphenyl-3-yloxy)-5-fluoronicotinamido)cyclohexyl)quinoxaline-2-carboxamide]
158 | Cc1cccc2nc(C(=O)N[C@H]3CC[C@@H](NC(=O)c4cc(F)cnc4Oc4cccc(-c5cccc(CN6CCNCC6)c5)c4)CC3)cn12 [Example 100, N-((1s,4s)-4-(5-fluoro-2-(3′-(piperazin-1-ylmethyl)biphenyl-3-yloxy)nicotinamido)cyclohexyl)-5-methylimidazo[1,2-a]pyridine-2-carboxamide]
63.1 | C[C@@H]1CN(Cc2cc(-c3cccc(Oc4ncc(F)cc4C(=O)N[C@H]4CC[C@@H](NC(=O)c5cc6n(n5)CCCC6)CC4)c3)ccc2O)C[C@H](C)N1 [Example 101, N-((1s,4s)-4-(2-(3′-(((3R,5S)-3,5-dimethylpiperazin-1-yl)methyl)-4′-hydroxybiphenyl-3-yloxy)-5-fluoronicotinamido)cyclohexyl)-4,5,6,7-tetrahydropyrazolo[1,5-a]pyridine-2-carboxamide]
39.8 | Cc1cc(C(=O)N[C@H]2CC[C@@H](NC(=O)c3cc(F)cnc3Oc3cccc(-c4cccc(CCN5CCNCC5)c4)c3)CC2)nn1C [Example 102, N-((1s,4s)-4-(1,5-dimethyl-1H-pyrazole-3-carboxamido)cyclohexyl)-5-fluoro-2-(3′-(2-(piperazin-1-yl)ethyl)biphenyl-3-yloxy)nicotinamide]
31.6 | Cc1cc(C(=O)N[C@H]2CC[C@@H](NC(=O)c3cc(F)cnc3Oc3cccc(-c4cccc(CCN5C[C@@H](C)N[C@@H](C)C5)c4)c3)CC2)nn1C [Example 103, N-((1s,4s)-4-(1,5-dimethyl-1H-pyrazole-3-carboxamido)cyclohexyl)-2-(3′-(2-((3S,5R)-3,5-dimethylpiperazin-1-yl)ethyl)biphenyl-3-yloxy)-5-fluoronicotinamide]
31.6 | C[C@@H]1CN(CCCc2ccc(-c3cccc(Oc4ncc(F)cc4C(=O)N[C@H]4CC[C@@H](NC(=O)c5cn6c(n5)CCCC6)CC4)c3)cc2)C[C@H](C)N1 [Example 104, N-((1s,4s)-4-(2-(4′-(3-((3S,5R)-3,5-dimethylpiperazin-1-yl)propyl)biphenyl-3-yloxy)-5-fluoronicotinamido)cyclohexyl)-5,6,7,8-tetrahydroimidazo[1,2-a]pyridine-2-carboxamide]
631 | CN(C)CCN(C)Cc1ccc(-c2cccc(Oc3ncc(F)cc3C(=O)N[C@H]3CC[C@@H](NC(=O)c4cn5c(n4)CCCC5)CC3)c2)cc1 [Example 105, N-((1s,4s)-4-(2-(4′-(((2-(dimethylamino)ethyl)(methyl)amino)methyl)biphenyl-3-yloxy) 5-fluoronicotinamido)cyclohexyl)-5,6,7,8-tetrahydroimidazo[1,2-a]pyridine-2-carboxamide]
251 | COc1c(CN2C[C@@H](C)N[C@@H](C)C2)cccc1-c1cccc(Oc2ncc(F)cc2C(=O)N[C@H]2CC[C@@H](NC(=O)c3cc(C)n(C)n3)CC2)c1 [Example 106, N-((1s,4s)-4-(1,5-dimethyl-1H-pyrazole-3-carboxamido)cyclohexyl)-2-(3′-(((3S,5R)-3,5-dimethylpiperazin-1-yl)methyl)-2′-methoxybiphenyl-3-yloxy)-5-fluoronicotinamide]
158 | Cc1cc(C(=O)N[C@H]2CC[C@@H](NC(=O)c3cc(F)cnc3Oc3cccc(-c4cccc(CN5C[C@@H](C)N[C@@H](C)C5)c4Cl)c3)CC2)nn1C [Example 107, 2-(2′-chloro-3′-(((3S,5R)-3,5-dimethylpiperazin-1-yl)methyl)biphenyl-3-yloxy)-N-((1s,4s)-4-(1,5-dimethyl-1H-pyrazole-3-carboxamido)cyclohexyl)-5-fluoronicotinamide]
20 | Cc1cc(C(=O)N[C@H]2CC[C@@H](NC(=O)c3cc(F)cnc3Oc3cccc(-c4cccc(CCCN5CCNCC5)c4)c3)CC2)nn1C [Example 108, N-((1s,4s)-4-(1,5-dimethyl-1H-pyrazole-3-carboxamido)cyclohexyl)-5-fluoro-2-(3′-(3-(piperazin-1-yl)propyl)biphenyl-3-yloxy)nicotinamide]
63.1 | Cc1cccc2nc(C(=O)N[C@H]3CC[C@@H](NC(=O)c4cc(F)cnc4Oc4cccc(-c5ccc(CN6CCC(N7CCCC7)CC6)cc5)c4)CC3)cn12 [Example 109, N-((1s,4s)-4-(5-fluoro-2-(4′-((4-(pyrrolidin-1-yl)piperidin-1-yl)methyl)biphenyl-3-yloxy)nicotinamido)cyclohexyl)-5-methylimidazo[1,2-a]pyridine-2-carboxamide]
200 | CN(C)CCN(C)Cc1ccc(-c2cccc(Oc3ncc(F)cc3C(=O)N[C@H]3CC[C@@H](NC(=O)c4cc5n(n4)CCCC5)CC3)c2)cc1 [Example 110, N-((1s,4s)-4-(2-(4′-(((2-(dimethylamino)ethyl)(methyl)amino)methyl)biphenyl-3-yloxy)-5-fluoronicotinamido)cyclohexyl)-4,5,6,7-tetrahydropyrazolo[1,5-a]pyridine-2-carboxamide hydrochloride]
39.8 | Cc1nc(C(=O)N[C@H]2CC[C@@H](NC(=O)c3cc(F)cnc3Oc3cccc(-c4ccc(CCN5CCC(N6CCCC6)CC5)cc4)c3)CC2)cs1 [Example 112, N-((1s,4s)-4-(5-fluoro-2-(4′-(2-(4-(pyrrolidin-1-yl)piperidin-1-yl)ethyl)biphenyl-3-yloxy)nicotinamido)cyclohexyl)-2-methylthiazole-4-carboxamide]
50.1 | C[C@@H]1CN(Cc2ccc(-c3cccc(Oc4ncc(F)cc4C(=O)N[C@H]4CC[C@@H](NC(=O)c5cc6n(n5)CCCC6)CC4)c3)cc2)C[C@H](C)N1 [Example 113, N-((1s,4s)-4-(2-(4′-(((3S,5R)-3,5-dimethylpiperazin-1-yl)methyl)biphenyl-3-yloxy)-5-fluoronicotinamido)cyclohexyl)-4,5,6,7-tetrahydropyrazolo[1,5-a]pyridine-2-carboxamide]
158 | O=C(N[C@H]1CC[C@@H](NC(=O)c2cc(F)cnc2Oc2cccc(-c3ccc(CN4CCNCC4)cc3)c2)CC1)c1cc2n(n1)CCCC2 [Example 114, N-((1s,4s)-4-(5-fluoro-2-(4′-(piperazin-1-ylmethyl)biphenyl-3-yloxy)nicotinamido)cyclohexyl)-4,5,6,7-tetrahydropyrazolo[1,5-a]pyridine-2-carboxamide]
631 | O=C(N[C@H]1CC[C@@H](NC(=O)c2cc(F)cnc2Oc2cccc(-c3ccc(CNCCCN4CCOCC4)cc3)c2)CC1)c1cn2cc(F)ccc2n1 [Example 115, 6-fluoro-N-((1s,4s)-4-(5-fluoro-2-(4′-((3-morpholinopropylamino)methyl)biphenyl-3-yloxy)nicotinamido)cyclohexyl)imidazo[1,2-a]pyridine-2-carboxamide]
31.6 | Cc1cccc2nc(C(=O)N[C@H]3CC[C@@H](NC(=O)c4cc(F)cnc4Oc4cccc(-c5ccc(CCCNC(C)C)cc5)c4)CC3)cn12 [Example 116, N-((1s,4s)-4-(5-fluoro-2-(4′-(3-(isopropylamino)propyl)biphenyl-3-yloxy)nicotinamido)cyclohexyl)-5-methylimidazo[1,2-a]pyridine-2-carboxamide]
100 | O=C(N[C@H]1CC[C@@H](NC(=O)c2cc(F)cnc2Oc2cccc(-c3ccc(CCN4CCNCC4)cc3)c2)CC1)c1cn2cc(F)ccc2n1 [Example 117, 6-fluoro-N-((1s,4s)-4-(5-fluoro-2-(4′-(2-(piperazin-1-yl)ethyl)biphenyl-3-yloxy)nicotinamido)cyclohexyl)imidazo[1,2-a]pyridine-2-carboxamide]
39.8 | O=C(N[C@H]1CC[C@@H](NC(=O)c2cc(F)cnc2Oc2cccc(-c3ccc(CCCN4CCNCC4)cc3)c2)CC1)c1cc2n(n1)CCCC2 [Example 118, N-((1s,4s)-4-(5-fluoro-2-(4′-(3-(piperazin-1-yl)propyl)biphenyl-3-yloxy)nicotinamido)cyclohexyl)-4,5,6,7-tetrahydropyrazolo[1,5-a]pyridine-2-carboxamide]

Source: patent US8273774B2, “Phenoxypyridinylamide compounds” (AstraZeneca AB, priority 2008, dated 2012)
